Reference: ChEMBL document CHEMBL2331316, “Highly potent and selective cannabinoid receptor 2 agonists: initial hit optimization of an adamantyl hit series identified from high-through-put screening” (Bioorg Med Chem Lett, 2013)
≈ marks a conversion by molar mass, not a printed value.

What was measured:
Cannabinoid receptor 1 [1] = target: Cannabinoid receptor 1 (Mus musculus, UniProt P47746); test: Agonist activity at mouse CB1 receptor by cAMP read-out assay; format: functional
Cannabinoid receptor 2 [2] = target: T1, Cannabinoid receptor 2 (Mus musculus, UniProt P47936); test: Binding affinity to mouse CB2 receptor
T1 sequence (P47936 whole entry): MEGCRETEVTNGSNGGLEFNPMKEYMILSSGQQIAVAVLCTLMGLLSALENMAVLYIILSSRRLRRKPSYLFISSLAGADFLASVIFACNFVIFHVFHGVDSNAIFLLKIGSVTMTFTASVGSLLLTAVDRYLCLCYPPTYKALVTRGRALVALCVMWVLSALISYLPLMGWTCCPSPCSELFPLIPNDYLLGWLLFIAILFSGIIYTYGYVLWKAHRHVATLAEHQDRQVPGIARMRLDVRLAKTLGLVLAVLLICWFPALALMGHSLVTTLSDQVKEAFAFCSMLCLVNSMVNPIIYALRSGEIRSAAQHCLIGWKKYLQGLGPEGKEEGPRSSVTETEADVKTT

Cannabinoid receptor 1 [3] = target: T2, Cannabinoid receptor 1 (Homo sapiens, UniProt P21554); test: Agonist activity at human CB1 receptor by cAMP read-out assay; format: functional
T2 sequence (P21554 whole entry): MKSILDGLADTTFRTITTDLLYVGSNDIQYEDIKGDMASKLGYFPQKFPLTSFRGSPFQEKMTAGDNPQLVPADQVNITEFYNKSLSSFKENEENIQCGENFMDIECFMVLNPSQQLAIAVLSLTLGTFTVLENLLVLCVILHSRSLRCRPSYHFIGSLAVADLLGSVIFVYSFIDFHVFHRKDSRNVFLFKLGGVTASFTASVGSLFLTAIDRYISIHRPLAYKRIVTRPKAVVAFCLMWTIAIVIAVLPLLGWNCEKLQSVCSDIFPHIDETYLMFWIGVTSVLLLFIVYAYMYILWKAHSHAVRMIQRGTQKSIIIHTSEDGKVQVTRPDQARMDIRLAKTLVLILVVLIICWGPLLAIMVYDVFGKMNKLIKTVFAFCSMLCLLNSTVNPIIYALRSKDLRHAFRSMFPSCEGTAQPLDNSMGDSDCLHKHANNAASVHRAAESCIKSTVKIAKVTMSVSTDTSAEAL

Cannabinoid receptor 2 [4] = target: T3, Cannabinoid receptor 2 (Homo sapiens, UniProt P34972); test: Binding affinity to human CB2 receptor
T3 sequence (P34972 whole entry): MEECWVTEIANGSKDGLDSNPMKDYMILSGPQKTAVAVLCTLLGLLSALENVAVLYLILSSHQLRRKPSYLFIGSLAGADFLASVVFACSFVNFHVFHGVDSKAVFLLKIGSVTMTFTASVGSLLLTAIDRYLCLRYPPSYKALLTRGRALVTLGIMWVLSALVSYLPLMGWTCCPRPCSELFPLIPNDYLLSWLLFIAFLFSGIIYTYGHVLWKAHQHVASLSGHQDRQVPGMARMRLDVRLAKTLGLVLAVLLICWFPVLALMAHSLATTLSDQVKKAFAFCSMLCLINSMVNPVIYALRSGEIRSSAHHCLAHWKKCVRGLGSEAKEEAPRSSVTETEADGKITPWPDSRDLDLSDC

[5] = Solubility, of the compound by LYSA assay; format: physicochemical
Cannabinoid receptor 2 [6] = target: T1, Cannabinoid receptor 2; test: Agonist activity at mouse CB2 receptor by cAMP read-out assay; format: functional
[7] = Lipophilicity, log D of the compound; format: physicochemical; conditions: octanol/water
[8] = Permeability, Pe of the compound; format: ADME; conditions: not told; read-out: permeability
[9] = Permeability, Pe of the compound assessed as drug accumulation; format: ADME; conditions: not told; read-out: permeability
Cannabinoid receptor 2 [10] = target: Cannabinoid receptor 2 (Homo sapiens, UniProt P34972, Q63R); test: Agonist activity at human CB2 receptor Q63R mutant
Sequence of Cannabinoid receptor 2 (Homo sapiens, UniProt P34972, Q63R) (P34972 whole entry Q63R): as the sequence (P34972 whole entry) above, with Q63R counted along it

[11] = Metabolic stability in human microsomes assessed as maximal achievable bioavailability; format: ADME, Microsome; conditions: read-out: Stability
Cannabinoid receptor 2 [12] = target: T3, Cannabinoid receptor 2; test: Agonist activity at human CB2 receptor by beta-arrestin recruitment assay
Cannabinoid receptor 2 [13] = target: T3, Cannabinoid receptor 2; test: Agonist activity at human CB2 receptor by cAMP read-out assay; format: functional
Cannabinoid receptor 1 [14] = target: T2, Cannabinoid receptor 1; test: Binding affinity to CB1 receptor (unknown origin)
Cannabinoid receptor 2 [15] = target: T3, Cannabinoid receptor 2; test: Binding affinity to CB2 receptor (unknown origin)

Sequence of Cannabinoid receptor 1 (Mus musculus, UniProt P47746) (P47746 whole entry): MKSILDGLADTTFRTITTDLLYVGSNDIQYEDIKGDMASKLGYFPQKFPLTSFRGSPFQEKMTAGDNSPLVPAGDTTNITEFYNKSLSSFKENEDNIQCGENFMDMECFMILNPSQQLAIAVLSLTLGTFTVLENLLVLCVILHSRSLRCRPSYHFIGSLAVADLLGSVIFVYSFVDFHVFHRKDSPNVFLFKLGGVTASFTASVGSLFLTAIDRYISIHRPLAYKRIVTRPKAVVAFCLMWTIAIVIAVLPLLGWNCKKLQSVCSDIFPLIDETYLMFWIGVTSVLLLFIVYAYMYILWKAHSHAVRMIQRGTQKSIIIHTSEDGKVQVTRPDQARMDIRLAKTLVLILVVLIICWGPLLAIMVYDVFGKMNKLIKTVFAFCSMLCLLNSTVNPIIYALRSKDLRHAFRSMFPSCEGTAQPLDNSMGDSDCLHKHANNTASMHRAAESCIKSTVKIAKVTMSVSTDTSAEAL

SMILES	EC50 (Cannabinoid receptor 1 [1])	Ki (Cannabinoid receptor 2 [2])	EC50 (Cannabinoid receptor 1 [3])	Ki (Cannabinoid receptor 2 [4])	solubility [5]	EC50 (Cannabinoid receptor 2 [6])	logD [7]	Papp [8]	Papp [9]	EC50 (Cannabinoid receptor 2 [10])	Fh [11]	EC50 (Cannabinoid receptor 2 [12])	EC50 (Cannabinoid receptor 2 [13])	Ki (Cannabinoid receptor 1 [14])	Ki (Cannabinoid receptor 2 [15])
O=C(NC12CC3CC(CC(C3)C1)C2)N1Cc2ccccc2C1	> 10000 nM	400 nM	> 10000 nM	270 nM	< 1 µg/mL	19 nM	4.26	12 ×10⁻⁶ cm/s	26 ×10⁻⁶ cm/s	27 nM	37%	700 nM			
O=C(C1C2CC3CC(C2)CC1C3)N1CCc2ccccc21 (stereo not given)	> 10000 nM	2200 nM	> 10000 nM	320 nM	< 1 µg/mL	20 nM		0.1 ×10⁻⁶ cm/s	5 ×10⁻⁶ cm/s	11 nM	37%	160 nM	7 nM		
COC1CCN(C(=O)C23CC4CC(CC(C4)C2)C3)c2ccccc21 (stereo not given)	> 10000 nM	5200 nM	> 10000 nM	770 nM	10 µg/mL (≈ 30.7 µM)	23 nM	3.79	3.3 ×10⁻⁶ cm/s	4.6 ×10⁻⁶ cm/s	78 nM	12%	1300 nM			
O=C(N1Cc2ccccc2C1)C12CC3CC(CC(C3)C1)C2	> 10000 nM	900 nM	> 10000 nM	500 nM	< 1 µg/mL	7 nM		0.5 ×10⁻⁶ cm/s	14 ×10⁻⁶ cm/s		51%	600 nM			
CCOc1ccc(NC(=O)C23CC4CC(CC(C4)C2)C3)cc1			> 10000 nM										1200 nM		
O=C(NC12CC3CC(CC(C3)C1)C2)c1nn(CCN2CCOCC2)c2ccccc12														6.8 nM	0.15 nM
O=C(N1CCCCc2ccccc21)C12CC3CC(CC(C3)C1)C2						> 10000 nM							> 10000 nM		
O=C(N1CCc2ccccc21)C12CC3CC(CC(O)(C3)C1)C2			> 10000 nM		> 318 µg/mL	1000 nM	2.77	10.3 ×10⁻⁶ cm/s	25 ×10⁻⁶ cm/s	531 nM	90%	2600 nM			
O=C(NC(=S)N1CCCCC1)C12CC3CC(CC(C3)C1)C2			> 10000 nM									500 nM	1400 nM		
COC(=O)c1cccc(NC(=O)C23CC4CC(CC(C4)C2)C3)c1			> 10000 nM										> 10000 nM		
COCCOC1CCN(C(=O)C23CC4CC(CC(C4)C2)C3)c2ccccc21 (stereo not given)	> 10000 nM	1500 nM	> 10000 nM	350 nM	97 µg/mL (≈ 263 µM)	20 nM	3.82	4.4 ×10⁻⁶ cm/s	5.7 ×10⁻⁶ cm/s	24 nM	5%	900 nM	20 nM		
CN1CCN(C(=O)C23CC4CC(CC(C4)C2)C3)c2ccccc21	> 10000 nM	2800 nM	> 10000 nM	500 nM	< 1 µg/mL	22 nM	4.09			71 nM	10%	> 10000 nM	29 nM		
CC1(C)CN(C(=O)C23CC4CC(CC(C4)C2)C3)c2ccccc21	> 10000 nM	4900 nM	> 10000 nM	500 nM	< 1 µg/mL	40 nM				36 nM	39%	900 nM	16 nM		
O=C(N1CCc2ccccc21)C12CC3CC(CC(C3)C1)C2	> 10000 nM	> 10000 nM	> 10000 nM	460 nM	< 1 µg/mL	26 nM		0.4 ×10⁻⁶ cm/s	2 ×10⁻⁶ cm/s		45%	220 nM			
Cc1cccc2c1N(C(=O)C13CC4CC(CC(C4)C1)C3)CC2	> 10000 nM	> 10000 nM	> 10000 nM	600 nM	< 1 µg/mL	50 nM				81 nM	51%	1600 nM	55 nM		
Cc1cccc2c1CCN2C(=O)C12CC3CC(CC(C3)C1)C2	> 10000 nM	1300 nM	> 10000 nM	170 nM	< 1 µg/mL	7 nM				11 nM	46%	290 nM	4 nM		
O=C(N1CCc2cc(F)ccc21)C12CC3CC(CC(C3)C1)C2	> 6000 nM	2400 nM	> 10000 nM	200 nM	< 1 µg/mL	9 nM		2.3 ×10⁻⁶ cm/s	4.7 ×10⁻⁶ cm/s		52%	200 nM			
CCOC1CCN(C(=O)C23CC4CC(CC(C4)C2)C3)c2ccccc21 (stereo not given)	5000 nM	> 10000 nM	> 10000 nM	990 nM	17 µg/mL (≈ 50.1 µM)	28 nM	4.09	0.7 ×10⁻⁶ cm/s	0.9 ×10⁻⁶ cm/s		6%		1.8 nM		
O=C(N1CCCc2ccccc21)C12CC3CC(CC(C3)C1)C2	> 10000 nM	4300 nM	> 10000 nM	790 nM	< 1 µg/mL	126 nM				55 nM	23%	> 10000 nM			
O=C(N1CCc2ccc(C(F)(F)F)cc21)C12CC3CC(CC(C3)C1)C2	> 10000 nM	2800 nM	> 10000 nM	2500 nM	< 1 µg/mL	2.9 nM				49 nM	36%	750 nM	15 nM		
CC(=O)c1ccccc1NC(=O)C12CC3CC(CC(C3)C1)C2			> 10000 nM										100 nM		
Cc1csc(NC(=O)C23CC4CC(CC(C4)C2)C3)n1			> 10000 nM									900 nM	600 nM		
CCOC(=O)c1ccccc1NC(=O)C12CC3CC(CC(C3)C1)C2			> 10000 nM									76 nM	15 nM		
O=C(N1CCc2ccccc21)C12CC3CC(CC1C3)C2	> 10000 nM	> 10000 nM	> 10000 nM	500 nM	< 1 µg/mL	51 nM	3.7	1.9 ×10⁻⁶ cm/s	0.5 ×10⁻⁶ cm/s		55%	900 nM	22 nM		
